Values quoted from earlier work as cited in patent US10493103B2, “Peroxide formulations and methods and applicators for using the same” (ACLARIS THERAPEUTICS, INC., priority 2014, dated 2019).
Like-named read-outs stand apart in the source and are kept apart here.

Test system: seborrheic keratosis
[1] = applied once daily for 16 weeks

CC(O)C(=O)O.N (stereo not shown) [ammonium lactate]
effectiveness in seborrheic keratosis (in vivo): ineffective

C=C1/C(=C\C=C2/CCC[C@]3(C)[C@@H]([C@H](C)/C=C/[C@@H](O)C4CC4)CC[C@@H]23)C[C@@H](O)C[C@@H]1O [calcipotriene ointment, calcipotriene]
effectiveness in seborrheic keratosis [1]: ineffective

CC(C)Cn1cnc2c(N)nc3ccccc3c21 [imiquimod cream, imiquimod]
effectiveness in seborrheic keratosis [1]: ineffective

CCOC(=O)c1ccc(C#Cc2ccc3c(c2)C(C)(C)CCS3)nc1 [tazarotene 0.1%, tazarotene]
complications of therapy (applied twice daily): burning, pruritus and redness
subjects with efficacy (applied twice daily, off-label, 7/15 subjects): 47%

CCOC(=O)c1ccc(C#Cc2ccc3c(c2)C(C)(C)CCS3)nc1 [tazarotene cream, tazarotene]
effectiveness in seborrheic keratosis [1]: ineffective

C=C1CC[C@H](O)C/C1=C/C=C1\CCC[C@]2(C)[C@@H]([C@H](C)CCCC(C)C)CC[C@@H]12 [topical vitamin D3 ointment, vitamin D3]
patients with an 80% or more improvement in lesions (once or twice daily for an average of 7.3 months (range 3-12 months)): 30%
